Reference: patent publication US20250241870A1, “OXYRESVERATROL AND DERIVATIVES THEREOF FOR USE IN LIPOLYSIS” (Caliway Biopharmaceuticals Co., Ltd., priority 2024, published 2025)
Where two headings read alike, the source gives them in different places.

Columns and labels:
[1] = MTT assay, cell viability rate of 3T3-L1 mature adipocytes; format: cell-based; conditions: mouse
Procedure: (§1) 3T3-L1 cell subculture medium (preadipocytes): DMEM+10% BCS+1% P/S.
(§2) 3T3-L1 cell induction differentiation medium (mature adipocytes): DMI Medium: DMEM+10% FBS+1% P/S+0.5 μM IBMX+0.1 μM dexamethasone+5 μg/mL insulin; and INS Medium: DMEM+10% FBS+1% P/S+5 μg/mL insulin. IBMX stock solution was prepared as follows: 500 mM solution in DMSO diluted and used to prepare the differentiation medium. Dexamethasone stock solution was preprepared as follows: 10 mM solution in EtOH diluted and used to prepare the differentiation medium. Insulin stock solution was prepared as follows: 10 mg/mL solution in double distilled water (ddw) diluted and used to prepare the differentiation medium.
(§3) Steps to induce differentiation: The adipocyte precursors 3T3-L1 cells (purchased from the Food Industry Research and Development Institute, Taiwan; abbreviated as BCRC) were seeded in 12-well plates, such that each well contained 1×10^5 cells.
(§4) MTT assay: After 3T3-L1 cells were induced to differentiate into mature adipocytes for 8 days, Resveratrol or Oxyresveratrol was added for treatment for 24 hours, then the culture medium was replaced with MTT reagent (working concentration: 0.5 mg/mL), and cultured in a 37° C. incubator for 2 hours. After removing the supernatant, DMSO was added to dissolve the purple crystals, and an ELISA reader was used to measure the OD 570 nm absorbance value and OD 630 nm background absorbance value. The background value OD 630 nm was subtracted from the measured value OD 570 nm in each group to obtain the final absorbance value.
(§5) Calculation formula (cell viability rate): After measuring the absorbance value at 570 nm and subtracting the background absorbance at 630 nm, the final absorbance value was multiplied by the […] and divided by the average absorbance value of the Control group for calculation.
(§6) 3T3-L1 preadipocytes and mature adipocytes were cultured using the same cell subculture medium disclosed in Example 1 above. Adipocytes differentiation, MTT assay, and determination cell viability was conducted following the methods disclosed herein. See, e.g. Example 1 above.

3T3-L1 mature adipocytes = experiment: as above; format: cell-based; conditions: 24 hours; for Cell viability compared with DMSO Vehicle group / Effect on adipocytes compared with resveratrol at the same concentration: p<0.001; for Cell viability rate compared with 0.2% DMSO Vehicle group: 20 ppm, 40 ppm and 60 ppm, p<0.001, dose effect; for Effect on adipocytes compared with resveratrol at the same concentration: 40 ppm
Procedure: as §1, §2, §3, §4, §5, §6

[2] = Cell viability rate, Replicate 1
[3] = Cell viability rate, Replicate 2
[4] = Cell viability rate, Replicate 3
[5] = Cell viability rate, Replicate 4

**Q.** What does the source list for `CC(=O)Oc1ccc(/C=C/c2cc(OC(C)=O)cc(OC(C)=O)c2)cc1` [TriacetyIR, [4-[(E)-2-(3,5-diacetyloxyphenyl)ethenyl]phenyl] acetate]?
**A.** viability at 24 h, 50 ppm ([1]; Cell viability rate, Mean): 68.9%; viability at 24 h, 50 ppm [1, 2]: 73.2%; viability at 24 h, 50 ppm [1, 3]: 64%; viability at 24 h, 50 ppm [1, 4]: 67.2%; viability at 24 h, 50 ppm [1, 5]: 71.2%; Cell viability compared with DMSO Vehicle group (3T3-L1 mature adipocytes; 50 ppm): significantly decreased

**Q.** Which results are given for `Oc1ccc(C=Cc2cc(O)cc(O)c2)cc1` [Resveratrol]?
**A.** viability at 24 h, 20 ppm ([1]; 3T3-L1 mature adipocytes (differentiated from preadipocytes), 3T3-L1 mature adipocytes, drug 20 ppm, 0.2% DMSO, 24 hours, relative to Control, mean ± spread of 3 replicates, read-out: Average viability (%)): 69.6 ± 1.36%; viability at 24 h, 40 ppm ([1]; 3T3-L1 mature adipocytes (differentiated from preadipocytes), 3T3-L1 mature adipocytes, drug 40 ppm, 0.2% DMSO, 24 hours, relative to Control, mean ± spread of 3 replicates, read-out: Average viability (%)): 43.4 ± 1.47%; viability at 24 h, 60 ppm ([1]; 3T3-L1 mature adipocytes (differentiated from preadipocytes), 3T3-L1 mature adipocytes, drug 60 ppm, 0.2% DMSO, 24 hours, relative to Control, mean ± spread of 3 replicates, read-out: Average viability (%)): 14.1 ± 0.6%; Cell viability rate compared with 0.2% DMSO Vehicle group (3T3-L1 mature adipocytes): significantly lower than 0.2% DMSO Vehicle group

**Q.** With `COc1ccc(/C=C/c2cc(O)cc(O)c2)cc1O` [IM05, 5-[(E)-2-(3-hydroxy-4-methoxyphenyl)ethenyl]benzene-1,3-diol] as the molecule, how does the viability at 24 h, 50 ppm ([1]; 3T3-L1 mature adipocytes (differentiated from preadipocytes), 3T3-L1 mature adipocytes, drug 50 ppm, 0.2% DMSO, 24 hours, mean of 4 replicates, read-out: Cell viability rate, Mean) read?
**A.** 72.4%

**Q.** And the viability at 24 h, 50 ppm ([1]; 3T3-L1 mature adipocytes (differentiated from preadipocytes), 3T3-L1 mature adipocytes, drug 50 ppm, 0.2% DMSO, 24 hours, read-out: Cell viability rate, Replicate 1)?
**A.** 66.5%

**Q.** And the viability at 24 h, 50 ppm ([1]; 3T3-L1 mature adipocytes (differentiated from preadipocytes), 3T3-L1 mature adipocytes, drug 50 ppm, 0.2% DMSO, 24 hours, read-out: Cell viability rate, Replicate 2)?
**A.** 71.2%

**Q.** And the viability at 24 h, 50 ppm ([1]; 3T3-L1 mature adipocytes (differentiated from preadipocytes), 3T3-L1 mature adipocytes, drug 50 ppm, 0.2% DMSO, 24 hours, read-out: Cell viability rate, Replicate 3)?
**A.** 73.5%

**Q.** And the viability at 24 h, 50 ppm ([1]; 3T3-L1 mature adipocytes (differentiated from preadipocytes), 3T3-L1 mature adipocytes, drug 50 ppm, 0.2% DMSO, 24 hours, read-out: Cell viability rate, Replicate 4)?
**A.** 78.4%

**Q.** And the “Cell viability compared with DMSO Vehicle group” value (3T3-L1 mature adipocytes; 50 ppm)?
**A.** significantly decreased

**Q.** For `Oc1cc(O)cc(/C=C/c2ccc(O)cc2O)c1` [Oxyresveratrol, 4-[(E)-2-(3,5-dihydroxyphenyl)ethenyl]benzene-1,3-diol], which viability at 24 h, 20 ppm ([1]; Average viability (%)) is on record?
**A.** 76.8 ± 3.27%

**Q.** And the viability at 24 h, 40 ppm ([1]; Average viability (%))?
**A.** 28.65 ± 0.26%

**Q.** And the viability at 24 h, 60 ppm ([1]; Average viability (%))?
**A.** 12.5 ± 1.09%

**Q.** And the viability at 24 h, 50 ppm ([1]; Cell viability rate, Mean)?
**A.** 39.6%

**Q.** What about the viability at 24 h, 50 ppm [1, 2] of the same molecule?
**A.** 43.2%

**Q.** What about the viability at 24 h, 50 ppm [1, 3] of the same molecule?
**A.** 38%

**Q.** What about the viability at 24 h, 50 ppm [1, 4] of the same molecule?
**A.** 37%

**Q.** And the viability at 24 h, 50 ppm [1, 5]?
**A.** 40%

**Q.** And the “Cell viability rate compared with 0.2% DMSO Vehicle group” value (3T3-L1 mature adipocytes)?
**A.** significantly lower than 0.2% DMSO Vehicle group

**Q.** And the “Effect on adipocytes compared with resveratrol at the same concentration” value (3T3-L1 mature adipocytes; listed as OxyR)?
**A.** more effective in reducing adipocytes than Res

**Q.** And the “Effect on adipocytes compared with resveratrol at the same concentration” value (3T3-L1 mature adipocytes; listed as oxyresveratrol)?
**A.** better inhibitory effects against adipocytes as compared with resveratrol

**Q.** And the “Effect on adipocytes survival compared with derivatives TriacetylR and IM05” value (3T3-L1 mature adipocytes; 50 ppm)?
**A.** more effective in reducing adipocytes survival than its derivatives

**Q.** And the “Cell viability compared with DMSO Vehicle group” value (3T3-L1 mature adipocytes; 50 ppm)?
**A.** significantly decreased

**Q.** And the “Cell viability rate compared with resveratrol at the same concentration” value (3T3-L1 mature adipocytes; 60 ppm)?
**A.** no significant difference in cell viability rate
